These results are taken from patent US20110224197A1, “PYRIMIDINES AND PYRIDINES USEFUL AS INHIBITORS OF PROTEIN KINASES” (Vertex Pharmaceuticals Incorporated, priority 2008, published 2011).

The test system of assay [1] is transient middle cerebral artery occlusion (MCAO) in rats. The note with it: after transient MCAO; cited from earlier work.
Assay [2] has as its system 5-FU treated C57BL/6 mice. Description: Leukocytopenia animal model (5-FU). In kind it is in vivo. An excerpt:
This study evaluates the hematopoietic recovery of peripheral blood and bone marrow cells following treatment with 5-FU (a myeloablative reagent) and compares the recoveries of various doses of the test compound with a cytokine known to enhance recovery rhG-CSF. The introduction of the chemotherapeutic agent causes a decrease in the peripheral blood white blood cell count and in particular, the neutrophil count. […] 5-FU acts by killing all the dividing cells, sparing primitive stem cells which are relatively quiescent and are thus not impacted by the treatment. Following treatment, primitive cells are recruited to proliferate and differentiate, thus re-establishing normal peripheral blood and femoral cell counts. This model may be used to evaluate compounds that could facilitate the recruitment and proliferation of the primitive cells and assess the kinetics of recovery of bone marrow as well as mature cell populations (white blood cells, red blood cells and platelets) in the blood.
One hundred and five C57BL/6 mice at 6-8 weeks of age were purchased from Jackson Labs. All, with the exception of the 4 untreated control mice were treated with 150 mg/kg 5-Fluorouracil (5-FU) interperitoneal (ip) at day 0. The four untreated mice (Group 1) were sacrificed on day 12 and they represent the “normal variability in blood and cell counts”. The 5-FU treated mice were divided equally into 4 distinct groups (Groups 2, 3, 4 and 5). On day −1 (the day before treatment with 5-FU) through to day 12, the mice in group 2 were treated at 8 a.m. and 6 p.m. with just solvent (20% PEG 400/10% Vitamin E TPGS/70% water) and served as the solvent control for groups 4 and 5.
Four mice from this group were sacrificed on days 4, 6, 8, 10 and 12 following the final dose of solvent the morning before sacrificing. On days 1 through 4, the mice in group three were dosed with 50 ug/kg rhG-CSF twice daily with 6 hours separating the daily doses. Four mice from this group were also sacrificed on days 4, 6, 8, 10 and 12. For treatment of test compound, groups 4 and 5, dosing was done as indicated above with the solvent control (2 times daily at 8 am and 6 pm) with compound that was prepared fresh each day.
Compound I-3 was weighed out into 13 vials and an appropriate amount of solvent added to achieve a final concentration for dosing at 30 mg/Kg (high dose). The compound was solubilized by sonication in solvent for 2-3 minutes and then 30% of the volume removed and diluted 1:3 with solvent to prepare compound for dosing at 10 mg/Kg (low dose). This was done daily and delivered to the animal technologist at 1 pm for the evening and next morning dosing. The unused compound was returned and frozen the next day when the freshly prepared sample for the next doses delivered. On days 1 through 12, mice in group 4 received the low dose of compound ([…]) and mice in group 5 received the high dose of compound (30 mg/Kg) twice daily. Four mice were sacrificed for each group on days 4, 6, 8, 10 and 12.
Each time mice were sacrificed from any of the groups, peripheral blood was collected in EDTA microtainer tubes by cardiac puncture. Approximately 400 uL of the blood was sent for analysis of blood indices (WBC, ANC, platelets, hemoglobin and hematocrit) at a central veterinary service laboratory using an automated system. The remainder of the blood was sent to STI where the plasma was separated by centrifugation at 8000 r.p.m. for 10 minutes and stored at −80° C. for future bioassays. Both femurs were also harvested and cells extracted and processed. The femoral cells were counted, red blood cells lysed and the cells subsequently prepared (at 5×10^6 cells/100 uL in Laemmli buffer and an equivalent unprocessed cell pellet) and stored at −80° C. for future protein analyses. Also on day 12, when the animals were sacrificed, their livers were removed and stored in 10% neutral formalin for future analysis. […]

The subject of assay [3] is GSK-3α/β pTYR. The assay can be described thus: Biomarker for leukocytopenia: pTYR in PBMC (Western blot). The format is in vivo, mice. The note with it: all doses. How it is done: To track the activity of Compound (I-3) in mice subjected to 5-FU treatment, peripheral blood was removed at time of sacrifice from both compound and vehicle-treated mice and a protein lysate was obtained from peripheral blood mononuclear cells (PBMC) after removal of red blood cells. Lysates were analyzed by Western blot and probed for GSK-3α/β pTYR levels.

Assay [4] deals with β-catenin. The assay can be described thus: Biomarker for leukocytopenia: β-catenin in PBMC. The format is in vivo, mice. The note with it: all doses.
Assay [5] deals with embolic occlusion of the middle cerebral artery (MCAO) in the rat. The assay can be described thus: Post Stroke Recovery Model I (embolic MCAO). In kind it is in vivo. How it is done:
This study investigates the effect of compounds on volume of cerebral infarction, cell proliferation, and functional recovery after embolic occlusion of the middle cerebral artery (MCAO) in the rat.
Ten Rats, subjected to MCAO (Zhang R L, et. al., 1997 # 1), were randomly assigned to either Vehicle or Compound I-3 after MCAO. The treatment was administered once daily orally starting 24 hours after MCAo for 14 days. 5-bromo-2-deoxyuridine (BrdU, Sigma; 100 mg/kg, i.p.) is administered at 1 day after MCAO, and consecutively for 6 days. Functional assessments are performed before MCAO and at day 1, day 7 and day 14 after MCAO by an investigator who is blinded to the study. The assessment included Neurological Severity Score (mNSS) and Adhesive removal test score, described below. A total of twenty rats are sacrificed at 14 days after MCAO. Three contralateral hemispheres of each group are assigned for analysis. Volume of infarction and cell proliferation in the ipsilateral subventricular zone (SVZ) are measured.
Rats are tested for left forelimb somatosensory deficit with the adhesive removal test (Schallert T, et. al., 1984 # 3). Each animal received 3 trials by placing round strips of packing tape (1.2 cm in diameter) at each testing day and the mean time (seconds) required to remove stimuli from the left forelimb is was recorded.
All the animals are anesthetized with ketamine (44 mg/kg IM) and xylazine (13 mg/kg IM) and sacrificed at fourteen days after MCA occlusion. […] Infarct volumes are measured using a Global Lab Image analysis program (Data Translation). The area of both hemispheres and the area containing the ischemic neuronal damage (mm^2) are calculated by tracing the area on the computer screen. The lesion volume […] is determined by multiplying the appropriate area by the section interval thickness (Chen H, et al., 1992, # 4). […]
To visualize specificity of the immunohischemical reaction, immunostaining of BrdU (a monoclonal antibody against BrdU, 1:100, DAK) is employed. […] BrdU-immunoreactive nuclei in the SVZ are counted on a computer monitor to improve visualization. […]

Assay [6] concerns GSK-3 α/β pTYR. The assay can be described thus: pTYR biomarker analysis in brain, Post Stroke Model I. The format is in vivo, rat. The note with it: all doses, termination of study. How it is done:
To track the activity of Compound I-3 in the CNS of rats subjected to MCAO, brains were removed and protein lysate was obtained as described above from both vehicle treated and compound treated animals at the termination of the study. Lysates were analyzed by Western blot and probed for GSK-3 α/β pTYR levels.

Assay [7] concerns β-catenin. Description: β-catenin in brain, Post Stroke Model I. In kind it is in vivo, rat. The conditions noted are these: all doses.
The mark [8] stands for this setting: once daily orally starting 24 hours after MCAo for 14 days.

As for “IGF-1: insulin growth factor-1, a known GSK-3 inhibitor”, in assay [1], the “infarct size in rat brains” value was “reduced infarct size”.

In the case of `Cc1nc(-c2ccccc2Cl)nc(Nc2n[nH]c3ccc(F)cc23)c1C` [Compound I-3], the “WBC nadir (lowest cell count observed)” value in assay [2] (5-FU + Compound I-3 10 mg/Kg twice daily) and in assay [2] (5-FU + Compound I-3 30 mg/Kg twice daily) was 4 days each time. Also, the “kinetics of the WBC and ANC recovery” value in assay [2] (5-FU + high dose (30 mg/Kg twice daily)) is “enhanced”. Also, in assay [2] (5-FU + high dose of test compound), the “Bone marrow cellularity: recovery to normal values” was found to be 10 days. Moreover, in assay [2] (5-FU and high dose, day 8), the “bone marrow cell counts versus 5-FU and rhG-CSF” value is on record as “significantly higher”. Moreover, the “bone marrow cellularity nadir” value in assay [2] (5-FU and high dose, versus other groups) is reported as “did not have as low a nadir as other groups”. In addition, the Platelet counts result in assay [2] (5FU + high dose, day 8) is “soared above the reference ranges”. Besides, the “kinetics of bone marrow cellular recovery” value in assay [2] (Group 5 (high dose) versus Groups 3 and 4) is “fastest”. Moreover, the “WBC and ANC recovery compared to 5-FU and rhG-CSF” value in assay [2] (high dose) is “comparable”. Moreover, the “WBC and ANC recovery compared to 5-FU and solvent control” value in assay [2] (high dose, days 8 and 10) was “significantly increased”. For the same molecule, the “pTYR signal compared to vehicle treated animals” value in assay [3] was “significant reduction”. For the same molecule, the “induction of β-catenin” value in assay [4] and in assay [7] was “no induction” in each case. The “number of BrdU positive cells in the ipsilateral SVZ compared with vehicles” value in assay [5] (14 days after MCAO) was “significantly (p<0.05) increased”. In assay [5] (setting [8]), the “adhesive removal test compared with vehicle group” value is reported as “significant (p<0.05) improvement”. Also, in assay [5] (setting [8]), the “mNSS test compared with vehicle group” value is on record as “significant (p<0.05) improvement”. Also, the “pTYR signal compared to vehicle treated rats” value in assay [6] is recorded as “significant reduction”.

B1: rhG-CSF: recombinant human granulocyte colony stimulating factor; a cytokine known to enhance recovery (protein, UniProt P09919 31-207, looked up)
Granulocyte …: TPLGPASSLPQSFLLKCLEQVRKIQGDGAALQEKLVSECATYKLCHPEELVLLGHSLGIPWAPLSSCPSQALQLAGCLSQLHSGLFLYQGLLQALEGISPELGPTLDTLQLDVADFATTIWQQMEELGMAPALQPTQGAMPAFASAFQRRAGGVLVASHLQSFLEVSYRVLRHLAQP
Regarding B1, in assay [2] (5-FU + rhG-CSF 50 ug/kg twice daily), the ANC nadir came out at 4 days. In addition, the “WBC nadir (lowest cell count observed)” value in assay [2] (5-FU + rhG-CSF 50 ug/kg twice daily, days 1 through 4) was 4 days. For the same molecule, the Platelet counts result in assay [2] (5-FU + rhG-CSF, day 8) is “soared above the reference ranges”. In assay [2] (5-FU + rhG-CSF, days 4 and 6), the “actual neutrophil counts (ANC)” value is “almost non-detectable levels”.
